Values after ≈ are worked out from the molar mass of the structure shown. Active and inactive are the calls of the source. The calls are words filed in the database; no cut-off is given here.
How the values were obtained:
Escherichia coli [1] = test: Antibacterial activity against Escherichia coli ATCC 25922 assessed as bacterial growth inhibition after 8 hrs by turbidimetric plate reader method; format: functional; conditions: for MBC: ATCC 25922, 8 h
Bacillus subtilis [2] = test: Antibacterial activity against Bacillus subtilis ATCC 6051 assessed as bacterial growth inhibition after 8 hrs by turbidimetric plate reader method; format: functional; conditions: for MBC: ATCC 6051, 8 h
Klebsiella pneumoniae [3] = test: Antibacterial activity against Klebsiella pneumoniae ATCC BAA-1705 assessed as bacterial growth inhibition after 8 hrs by turbidimetric plate reader method; format: functional; conditions: for MBC: ATCC BAA-1705, 8 h
Escherichia coli [4] = test: Downregulation of iroD gene expression in Escherichia coli ATCC 25922 at 50 umol/L after 8 hrs by real time RT-PCR; format: functional, organism-based
Escherichia coli [5] = test: Downregulation of tsh gene expression in Escherichia coli ATCC 25922 at 50 umol/L after 8 hrs by semi-quantitative RT-PCR; format: functional, organism-based
Escherichia coli [6] = test: Upregulation of cysB gene expression in Escherichia coli ATCC 25922 at 50 umol/L after 8 hrs by semi-quantitative RT-PCR; format: functional, organism-based
Bacillus subtilis [7] = test: Antibacterial activity against Bacillus subtilis ATCC 6051 assessed as bacterial growth inhibition at 50 umol/L after 8 hrs by turbidimetric plate reader method; format: functional, organism-based
Acinetobacter baumannii [8] = test: Antibacterial activity against Acinetobacter baumannii ATCC BAA-1710D assessed as bacterial growth inhibition after 8 hrs by turbidimetric plate reader method; format: functional
Escherichia coli [9] = test: Upregulation of cysB gene expression in Escherichia coli ATCC 25922 at 50 umol/L after 8 hrs by real time RT-PCR; format: functional, organism-based
Bacillus subtilis [10] = test: Downregulation of yqhC gene expression in Bacillus subtilis ATCC 6051 at 50 umol/L after 8 hrs by real time RT-PCR; format: functional, organism-based
Escherichia coli [11] = test: Antibacterial activity against Escherichia coli ATCC 25922 assessed as bacterial growth inhibition at 50 umol/L after 8 hrs by turbidimetric plate reader method; format: functional, organism-based
Escherichia coli [12] = test: Downregulation of tsh gene expression in Escherichia coli ATCC 25922 at 50 umol/L after 8 hrs by real time RT-PCR; format: functional, organism-based
Bacillus subtilis [13] = test: Downregulation of yqhC gene expression in Bacillus subtilis ATCC 6051 at 50 umol/L after 8 hrs by semi-quantitative RT-PCR; format: functional, organism-based
Escherichia coli [14] = test: Upregulation of acrA gene expression in Escherichia coli ATCC 25922 at 50 umol/L after 8 hrs by semi-quantitative RT-PCR; format: functional, organism-based
Escherichia coli [15] = test: Downregulation of iroD gene expression in Escherichia coli ATCC 25922 at 50 umol/L after 8 hrs by semi-quantitative RT-PCR; format: functional, organism-based
Bacillus subtilis [16] = test: Downregulation of yqhB gene expression in Bacillus subtilis ATCC 6051 at 50 umol/L after 8 hrs by semi-quantitative RT-PCR; format: functional, organism-based
Bacillus subtilis [17] = test: Downregulation of yhdT gene expression in Bacillus subtilis ATCC 6051 at 50 umol/L after 8 hrs by real time RT-PCR; format: functional, organism-based
Bacillus subtilis [18] = test: Downregulation of yqhB gene expression in Bacillus subtilis ATCC 6051 at 50 umol/L after 8 hrs by real time RT-PCR; format: functional, organism-based
Bacillus subtilis [19] = test: Downregulation of yhdT gene expression in Bacillus subtilis ATCC 6051 at 50 umol/L after 8 hrs by semi-quantitative RT-PCR; format: functional, organism-based
Escherichia coli [20] = test: Upregulation of acrA gene expression in Escherichia coli ATCC 25922 at 50 umol/L after 8 hrs by real time RT-PCR relative to gapA; format: functional, organism-based
Acinetobacter baumannii [21] = test: Downregulation of PER gene expression in Acinetobacter baumannii ATCC BAA-1710D at 50 umol/L after 8 hrs by semi-quantitative RT-PCR; format: functional, organism-based
Acinetobacter baumannii [22] = test: Antibacterial activity against Acinetobacter baumannii ATCC BAA-1710D assessed as bacterial growth inhibition at 50 umol/L after 8 hrs by turbidimetric plate reader method; format: functional, organism-based
Acinetobacter baumannii [23] = test: Upregulation of CARB gene expression in Acinetobacter baumannii ATCC BAA-1710D at 50 umol/L after 8 hrs by real time RT-PCR; format: functional, organism-based
Acinetobacter baumannii [24] = test: Upregulation of CARB gene expression in Acinetobacter baumannii ATCC BAA-1710D at 50 umol/L after 8 hrs by semi-quantitative RT-PCR; format: functional, organism-based
Acinetobacter baumannii [25] = test: Upregulation of TEM gene expression in Acinetobacter baumannii ATCC BAA-1710D at 50 umol/L after 8 hrs by real time RT-PCR; format: functional, organism-based
Acinetobacter baumannii [26] = test: Downregulation of PER gene expression in Acinetobacter baumannii ATCC BAA-1710D at 50 umol/L after 8 hrs by real time RT-PCR; format: functional, organism-based
Acinetobacter baumannii [27] = test: Upregulation of VEB gene expression in Acinetobacter baumannii ATCC BAA-1710D at 50 umol/L after 8 hrs by semi-quantitative RT-PCR; format: functional, organism-based
Acinetobacter baumannii [28] = test: Upregulation of SHV gene expression in Acinetobacter baumannii ATCC BAA-1710D at 50 umol/L after 8 hrs by real time RT-PCR; format: functional, organism-based
Acinetobacter baumannii [29] = test: Downregulation of GES gene expression in Acinetobacter baumannii ATCC BAA-1710D at 50 umol/L after 8 hrs by real time RT-PCR; format: functional, organism-based
Acinetobacter baumannii [30] = test: Upregulation of TEM gene expression in Acinetobacter baumannii ATCC BAA-1710D at 50 umol/L after 8 hrs by semi-quantitative RT-PCR; format: functional, organism-based
Acinetobacter baumannii [31] = test: Upregulation of VEB gene expression in Acinetobacter baumannii ATCC BAA-1710D at 50 umol/L after 8 hrs by real time RT-PCR; format: functional, organism-based
Acinetobacter baumannii [32] = test: Upregulation of SHV gene expression in Acinetobacter baumannii ATCC BAA-1710D at 50 umol/L after 8 hrs by semi-quantitative RT-PCR; format: functional, organism-based
Acinetobacter baumannii [33] = test: Downregulation of GES gene expression in Acinetobacter baumannii ATCC BAA-1710D at 50 umol/L after 8 hrs by semi-quantitative RT-PCR; format: functional, organism-based
Klebsiella pneumoniae [34] = test: Antibacterial activity against Klebsiella pneumoniae ATCC BAA-1705 assessed as bacterial growth inhibition at 50 umol/L after 8 hrs by turbidimetric plate reader method; format: functional, organism-based
Klebsiella pneumoniae [35] = test: Upregulation of GES gene expression in Klebsiella pneumoniae ATCC BAA-1705 at 50 umol/L after 8 hrs by semi-quantitative RT-PCR; format: functional, organism-based
Klebsiella pneumoniae [36] = test: Upregulation of GES gene expression in Klebsiella pneumoniae ATCC BAA-1705 at 50 umol/L after 8 hrs by real time RT-PCR; format: functional, organism-based
Klebsiella pneumoniae [37] = test: Upregulation of IMP gene expression in Klebsiella pneumoniae ATCC BAA-1705 at 50 umol/L after 8 hrs by semi-quantitative RT-PCR; format: functional, organism-based
Klebsiella pneumoniae [38] = test: Upregulation of VEB gene expression in Klebsiella pneumoniae ATCC BAA-1705 at 50 umol/L after 8 hrs by real time RT-PCR; format: functional, organism-based
Klebsiella pneumoniae [39] = test: Downregulation of ldhD gene expression in Klebsiella pneumoniae ATCC BAA-1705 at 50 umol/L after 8 hrs by real time RT-PCR; format: functional, organism-based
Klebsiella pneumoniae [40] = test: Upregulation of VEB gene expression in Klebsiella pneumoniae ATCC BAA-1705 at 50 umol/L after 8 hrs by semi-quantitative RT-PCR; format: functional, organism-based
Klebsiella pneumoniae [41] = test: Upregulation of PER-2 gene expression in Klebsiella pneumoniae ATCC BAA-1705 at 50 umol/L after 8 hrs by semi-quantitative RT-PCR; format: functional, organism-based
Klebsiella pneumoniae [42] = test: Upregulation of PER-2 gene expression in Klebsiella pneumoniae ATCC BAA-1705 at 50 umol/L after 8 hrs by real time RT-PCR; format: functional, organism-based
Klebsiella pneumoniae [43] = test: Upregulation of IMP gene expression in Klebsiella pneumoniae ATCC BAA-1705 at 50 umol/L after 8 hrs by real time RT-PCR; format: functional, organism-based
Klebsiella pneumoniae [44] = test: Downregulation of ldhD gene expression in Klebsiella pneumoniae ATCC BAA-1705 at 50 umol/L after 8 hrs by semi-quantitative RT-PCR; format: functional, organism-based

CC1(C)S[C@@H]2[C@H](NC(=O)[C@H](N)c3ccccc3)C(=O)N2[C@H]1C(=O)O [AMPICILLIN]
MBC (Escherichia coli [1]): 1.8 µM (≈ 0.629 µg/mL)

CN[C@@H]1[C@H](O[C@H]2[C@H](O[C@H]3[C@H](O)[C@@H](O)[C@H](N=C(N)N)[C@@H](O)[C@@H]3N=C(N)N)O[C@@H](C)[C@]2(O)C=O)O[C@@H](CO)[C@H](O)[C@H]1O [STREPTOMYCIN]
MBC (Bacillus subtilis [2]): 2.1 µM (≈ 1.22 µg/mL)
MBC (Klebsiella pneumoniae [3]): 1.3 µM (≈ 0.756 µg/mL)

CC1(C)CC[C@]2(C(=O)OCc3ccccc3C#N)CC[C@]3(C)C(=CC[C@@H]4[C@@]5(C)[C@H]6O[C@H]6[C@H](O)C(C)(C)[C@@H]5CC[C@]43C)[C@@H]2C1
Activity (Escherichia coli [4]): Active
growth inhibition (GI) (Escherichia coli [1]): Dose-dependent effect
MBC (Escherichia coli [1]): 5.3 µM (≈ 3.1 µg/mL)
Activity (Escherichia coli [5]): Active
Activity (Escherichia coli [6]): Active
growth inhibition (GI) (Bacillus subtilis [7]): Active
growth inhibition (GI) (Bacillus subtilis [2]): Dose-dependent effect
MBC (Bacillus subtilis [2]): 2 µM (≈ 1.17 µg/mL)
growth inhibition (GI) (Acinetobacter baumannii [8]): Dose-dependent effect
Activity (Escherichia coli [9]): Active
Activity (Bacillus subtilis [10]): Active
growth inhibition (GI) (Klebsiella pneumoniae [3]): Dose-dependent effect
growth inhibition (GI) (Escherichia coli [11]): Active
Activity (Escherichia coli [12]): Active
Activity (Bacillus subtilis [13]): Active
Activity (Escherichia coli [14]): Active
Activity (Escherichia coli [15]): Active
Activity (Bacillus subtilis [16]): Active
Activity (Bacillus subtilis [17]): Active
Activity (Bacillus subtilis [18]): Active
Activity (Bacillus subtilis [19]): Active
Activity (Escherichia coli [20]): Active

CC(=O)O[C@H]1[C@@H]2O[C@@H]2[C@]2(C)[C@H]3CC=C4[C@@H]5CC(C)(C)CC[C@]5(C(=O)O)CC[C@@]4(C)[C@]3(C)CC[C@H]2C1(C)C
growth inhibition (GI) (Escherichia coli [1]): Dose-dependent effect
Activity (Acinetobacter baumannii [21]): Active
growth inhibition (GI) (Acinetobacter baumannii [22]): Active
Activity (Acinetobacter baumannii [23]): Active
Activity (Acinetobacter baumannii [24]): Active
Activity (Acinetobacter baumannii [25]): Active
growth inhibition (GI) (Bacillus subtilis [2]): Dose-dependent effect
Activity (Acinetobacter baumannii [26]): Active
MBC (Acinetobacter baumannii [8]): 2.8 µM (≈ 1.44 µg/mL)
growth inhibition (GI) (Acinetobacter baumannii [8]): Dose-dependent effect
Activity (Acinetobacter baumannii [27]): Active
growth inhibition (GI) (Klebsiella pneumoniae [3]): Dose-dependent effect
Activity (Acinetobacter baumannii [28]): Active
Activity (Acinetobacter baumannii [29]): Active
Activity (Acinetobacter baumannii [30]): Active
Activity (Acinetobacter baumannii [31]): Active
Activity (Acinetobacter baumannii [32]): Active
Activity (Acinetobacter baumannii [33]): Active

CO[C@H]1[C@@H]2O[C@@H]2[C@]2(C)[C@H]3CC=C4[C@@H]5CC(C)(C)CC[C@]5(C(=O)O)CC[C@@]4(C)[C@]3(C)CC[C@H]2C1(C)C
growth inhibition (GI) (Acinetobacter baumannii [22]): inactive
growth inhibition (GI) (Bacillus subtilis [7]): inactive
growth inhibition (GI) (Escherichia coli [11]): inactive
growth inhibition (GI) (Klebsiella pneumoniae [34]): inactive

CCCOC(=O)[C@]12CCC(C)(C)C[C@H]1C1=CC[C@@H]3[C@@]4(C)[C@H]5O[C@H]5[C@H](O)C(C)(C)[C@@H]4CC[C@@]3(C)[C@]1(C)CC2
growth inhibition (GI) (Escherichia coli [1]): Dose-dependent effect
Activity (Klebsiella pneumoniae [35]): inactive
growth inhibition (GI) (Bacillus subtilis [2]): Dose-dependent effect
growth inhibition (GI) (Acinetobacter baumannii [8]): Dose-dependent effect
Activity (Klebsiella pneumoniae [36]): inactive
Activity (Klebsiella pneumoniae [37]): Active
Activity (Klebsiella pneumoniae [38]): Active
growth inhibition (GI) (Klebsiella pneumoniae [3]): Dose-dependent effect
MBC (Klebsiella pneumoniae [3]): 1.5 µM (≈ 0.769 µg/mL)
Activity (Klebsiella pneumoniae [39]): Active
Activity (Klebsiella pneumoniae [40]): Active
Activity (Klebsiella pneumoniae [41]): Active
Activity (Klebsiella pneumoniae [42]): Active
Activity (Klebsiella pneumoniae [43]): Active
Activity (Klebsiella pneumoniae [44]): Active
growth inhibition (GI) (Klebsiella pneumoniae [34]): Active

CCOC(=O)[C@]12CCC(C)(C)C[C@H]1C1=CC[C@@H]3[C@@]4(C)[C@H]5O[C@H]5[C@H](O)C(C)(C)[C@@H]4CC[C@@]3(C)[C@]1(C)CC2
growth inhibition (GI) (Escherichia coli [1]): Dose-dependent effect
Activity (Klebsiella pneumoniae [35]): inactive
growth inhibition (GI) (Bacillus subtilis [2]): Dose-dependent effect
growth inhibition (GI) (Acinetobacter baumannii [8]): Dose-dependent effect
Activity (Klebsiella pneumoniae [36]): inactive
Activity (Klebsiella pneumoniae [37]): Active
Activity (Klebsiella pneumoniae [38]): Active
growth inhibition (GI) (Klebsiella pneumoniae [3]): Dose-dependent effect
MBC (Klebsiella pneumoniae [3]): 1.8 µM (≈ 0.898 µg/mL)
Activity (Klebsiella pneumoniae [39]): Active
Activity (Klebsiella pneumoniae [40]): Active
Activity (Klebsiella pneumoniae [41]): Active
Activity (Klebsiella pneumoniae [42]): Active
Activity (Klebsiella pneumoniae [43]): Active
Activity (Klebsiella pneumoniae [44]): Active
growth inhibition (GI) (Klebsiella pneumoniae [34]): Active

NC[C@H]1O[C@H](O[C@H]2[C@H](O)[C@@H](O[C@H]3O[C@H](CO)[C@@H](O)[C@H](N)[C@H]3O)[C@H](N)C[C@@H]2N)[C@H](O)[C@@H](O)[C@@H]1O [KANAMYCIN]
MBC (Acinetobacter baumannii [8]): 1.6 µM (≈ 0.775 µg/mL)
